Data from patent publication US20130109682A1, “CYCLIC ETHER COMPOUNDS USEFUL AS KINASE INHIBITORS” (NOVARTIS AG, priority 2010, published 2013).

How the values were obtained:
PIM1 = PIM1 (Homo sapiens, UniProt P11309); experiment: KinaseGlo Pim1 ATP depletion assay; assay type: biochemical
How it was run: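 2.5 nM PIM1 preincubated 15 min with compound and 40 μM BAD peptide in 50 mM HEPES pH 7.5, 5 mM MgCl2, 1 mM DTT, 0.05% BSA, 2.5% DMSO. The reaction was started with 20 μM ATP (final) and run to about 50% ATP depletion. Remaining ATP read by KinaseGlo Plus luminescence to give IC50.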

GSK3β = GSK3β (Homo sapiens, UniProt P49841); experiment: GSK3β ATP depletion assay; assay type: biochemical; conditions: read-out: GSK3b IC50
Chain of GSK3β (P49841 whole entry, species assumed): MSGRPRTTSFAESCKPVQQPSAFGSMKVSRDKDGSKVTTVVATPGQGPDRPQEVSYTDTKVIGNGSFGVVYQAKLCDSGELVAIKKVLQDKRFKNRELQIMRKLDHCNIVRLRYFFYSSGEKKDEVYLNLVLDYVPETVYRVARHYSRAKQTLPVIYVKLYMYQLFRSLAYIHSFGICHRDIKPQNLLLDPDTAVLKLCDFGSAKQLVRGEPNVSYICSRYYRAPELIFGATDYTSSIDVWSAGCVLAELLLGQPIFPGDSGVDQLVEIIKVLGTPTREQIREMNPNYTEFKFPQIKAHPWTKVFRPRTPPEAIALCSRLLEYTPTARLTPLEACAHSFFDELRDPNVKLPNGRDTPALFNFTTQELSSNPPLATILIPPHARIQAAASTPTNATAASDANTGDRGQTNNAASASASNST
How it was run: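 Human GSK3β (5 nM) preincubated 15 min with 10 μM biotinylated phospho-CREB peptide in pH 7.5 Tris buffer (15 mM MgCl2, 1 mM DTT, 0.1% BSA, 2.5% DMSO). Reaction started with 2 μM ATP and run to about 50% ATP depletion. Remaining ATP measured by KinaseGlo luminescence.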

[1] = system: KMS11 (human myeloma cell line); experiment: Cell proliferation assay (CellTiter-Glo), KMS11; assay type: cell-based; conditions: Homo sapiens, KMS-11; KMS11-Luc cells
How it was run: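 KMS11 cells in IMDM with 10% FBS and sodium pyruvate, seeded at 2000 cells/well on assay day. Compound added at 2× to equal volume of cells, incubated 3 days at 37° C. Viability read by CellTiter-Glo luminescence; EC50 derived.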

PIM2 = PIM2 (Homo sapiens, UniProt Q9P1W9); experiment: KinaseGlo Pim2 ATP depletion assay; assay type: biochemical
Chain of PIM2 (Q9P1W9 whole entry): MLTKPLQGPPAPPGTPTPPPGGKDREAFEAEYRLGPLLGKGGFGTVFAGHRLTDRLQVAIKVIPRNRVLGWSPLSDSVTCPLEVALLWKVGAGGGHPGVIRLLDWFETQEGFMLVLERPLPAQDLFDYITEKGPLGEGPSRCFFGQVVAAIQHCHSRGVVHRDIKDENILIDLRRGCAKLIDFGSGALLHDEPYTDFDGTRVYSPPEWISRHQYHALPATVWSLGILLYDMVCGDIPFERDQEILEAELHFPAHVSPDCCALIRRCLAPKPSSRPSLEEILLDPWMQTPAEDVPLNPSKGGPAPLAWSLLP
How it was run: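 Luminescent ATP-depletion read-out of PIM2 phosphorylating BAD peptide (RSRHSSYPAGT-OH). Final conditions: 5 nM PIM2, 4 μM ATP, 10 μM peptide, 2.5% DMSO in 50 mM HEPES pH 7.5, 5 mM MgCl2, 1 mM DTT, 0.05% BSA. Enzyme–peptide preincubated 15 min with compound; reaction run to ~50% ATP depletion.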

PIM3 = PIM3 (Homo sapiens, UniProt Q86V86); experiment: KinaseGlo Pim3 ATP depletion assay; assay type: biochemical
How it was run: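 Kinase was preincubated 15 min with BAD peptide in HEPES pH 7.5/MgCl2/DTT/BSA before ATP was added. Final concentrations were 40 μM ATP, 100 μM BAD peptide and 2.5% DMSO, with 5 nM enzyme. The reaction ran to ~50% ATP depletion and remaining ATP was read by KinaseGlo Plus luminescence.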

Chain of PIM1 (P11309 whole entry): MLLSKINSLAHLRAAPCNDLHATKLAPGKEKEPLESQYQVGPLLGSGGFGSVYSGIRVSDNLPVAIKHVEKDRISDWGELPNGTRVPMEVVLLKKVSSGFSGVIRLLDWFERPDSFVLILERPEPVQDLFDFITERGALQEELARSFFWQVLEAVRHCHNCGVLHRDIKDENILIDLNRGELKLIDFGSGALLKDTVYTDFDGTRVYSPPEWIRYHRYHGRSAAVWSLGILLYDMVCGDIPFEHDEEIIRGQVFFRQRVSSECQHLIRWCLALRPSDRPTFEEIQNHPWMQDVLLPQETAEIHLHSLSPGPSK

## C[C@H]1O[C@@H](c2ccncc2NC(=O)c2ccc(F)c(-c3c(F)cccc3F)n2)[C@H](F)C(=O)[C@]1(C)O [Example 72, 6-(2,6-difluorophenyl)-5-fluoro-N-(4-((2S,3S,5R,6R)-3-fluoro-5-hydroxy-5,6-dimethyl-4-oxotetrahydro-2H-pyran-2-yl)pyridin-3-yl)picolinamide]
PIM1
  IC50: 1 nM
GSK3β
  IC50: 385 nM
[1]
  EC50: 1500 nM
PIM2
  IC50: 15 nM
PIM3
  IC50: 6 nM

## COC[C@H]1O[C@@H](c2ccncc2NC(=O)c2ccc(F)c(-c3c(F)cccc3F)n2)C[C@@H](O)[C@@H]1O [Example 57, 6-(2,6-difluorophenyl)-N-(4-((2R,4R,5S,6R)-4,5-dihydroxy-6-(methoxymethyl)tetrahydro-2H-pyran-2-yl)pyridin-3-yl)-5-fluoropicolinamide]
PIM1
  IC50: 19 nM
GSK3β
  IC50: 2000 nM
[1]
  EC50: 6100 nM
PIM2
  IC50: 111 nM
PIM3
  IC50: 28 nM

## O=C(Nc1cnccc1[C@@H]1C[C@H](O)[C@]2(O)CCC[C@@H]2O1)c1ccnn(-c2ccccc2F)c1=O [Example 203, N-(4-((2S,4S,4aR,7aS)-4,4a-dihydroxyoctahydrocyclopenta[b]pyran-2-yl)pyridin-3-yl)-2-(2-fluorophenyl)-3-oxo-2,3-dihydropyridazine-4-carboxamide]
PIM1
  IC50: 6610 nM
GSK3β
  IC50: 543 nM
[1]
  EC50: > 10000 nM
PIM2
  IC50: > 250000 nM
PIM3
  IC50: 23800 nM

## O=C(Nc1cnccc1[C@H]1C[C@@H](O)[C@H](O)[C@@H](CO)O1)c1csc(-c2c(F)cccc2F)n1 [Example 80, 2-(2,6-difluorophenyl)-N-(4-((2R,4R,5S,6R)-4,5-dihydroxy-6-(hydroxymethyl)tetrahydro-2H-pyran-2-yl)pyridin-3-yl)thiazole-4-carboxamide]
PIM1
  IC50: 44 nM
GSK3β
  IC50: 1230 nM
[1]
  EC50: > 10000 nM
PIM2
  IC50: 4920 nM
PIM3
  IC50: 171 nM

## O=C(Nc1cnccc1[C@@H]1C[C@H](O)CCO1)c1csc(-c2c(F)cccc2F)n1 [Example 130, 2-(2,6-difluorophenyl)-N-(4-((2S,4R)-4-hydroxytetrahydro-2H-pyran-2-yl)pyridin-3-yl)thiazole-4-carboxamide]
PIM1
  IC50: 12 nM
GSK3β
  IC50: 228 nM
[1]
  EC50: > 10000 nM
PIM2
  IC50: 2350 nM
PIM3
  IC50: 84 nM

## N#C[C@H]1O[C@@H](c2ccncc2NC(=O)c2ccc(F)c(-c3c(F)cccc3F)n2)C[C@@H](O)[C@@H]1O [Example 13, N-(4-((2R,4R,5S,6R)-6-cyano-4,5-dihydroxytetrahydro-2H-pyran-2-yl)pyridin-3-yl)-6-(2,6-difluorophenyl)-5-fluoropicolinamide]
PIM1
  IC50: 1 nM
GSK3β
  IC50: 583 nM
[1]
  EC50: 8110 nM
PIM2
  IC50: 12 nM
PIM3
  IC50: 5 nM

## C[C@@H]1C[C@H](O)C[C@H](c2ccncc2NC(=O)c2csc(-c3c(F)cccc3F)n2)O1 (stereo in doubt) [Example 125, 2-(2,6-difluorophenyl)-N-(4-((2R,4S,6R)-4-hydroxy-6-methyltetrahydro-2H-pyran-2-yl)pyridin-3-yl)thiazole-4-carboxamide]
PIM1
  IC50: 10 nM
GSK3β
  IC50: 104 nM
[1]
  EC50: > 10000 nM
PIM2
  IC50: 2320 nM
PIM3
  IC50: 165 nM

## C[C@@H]1O[C@H](c2ccncc2NC(=O)c2ccc(F)c(-c3c(F)cccc3F)n2)C[C@@H](O)[C@H]1O [Example 107, 6-(2,6-difluorophenyl)-N-(4-((2S,4R,5R,6S)-4,5-dihydroxy-6-methyltetrahydro-2H-pyran-2-yl)pyridin-3-yl)-5-fluoropicolinamide]
PIM1
  IC50: 2 nM
GSK3β
  IC50: 196 nM
[1]
  EC50: 5900 nM
PIM2
  IC50: 20 nM
PIM3
  IC50: 4 nM

## CC[C@H]1O[C@@H](c2ccncc2NC(=O)c2nc(-c3c(F)cccc3F)sc2N)C[C@@H](O)[C@@H]1O [Example 40, 5-amino-2-(2,6-difluorophenyl)-N-(4-((2R,4R,5S,6R)-6-ethyl-4,5-dihydroxytetrahydro-2H-pyran-2-yl)pyridin-3-yl)thiazole-4-carboxamide]
PIM1
  IC50: 1 nM
GSK3β
  IC50: 2 nM
[1]
  EC50: 600 nM
PIM2
  IC50: 2 nM
PIM3
  IC50: 2 nM

## N#CC[C@H]1O[C@@H](c2ccncc2NC(=O)c2ccc(C#N)c(-c3c(F)cccc3F)n2)C[C@@H](O)[C@@H]1O [Example 47, 5-cyano-N-(4-((2R,4R,5S,6R)-6-(cyanomethyl)-4,5-dihydroxytetrahydro-2H-pyran-2-yl)pyridin-3-yl)-6-(2,6-difluorophenyl)picolinamide]
PIM1
  IC50: 58 nM
GSK3β
  IC50: 9180 nM
[1]
  EC50: > 10000 nM
PIM2
  IC50: 356 nM
PIM3
  IC50: 113 nM

## O=C(Nc1cnccc1[C@H]1C[C@@H](O)CC2(CC2)O1)c1csc(-c2c(F)cccc2F)n1 [Example 61, 2-(2,6-difluorophenyl)-N-(4-((5R,7R)-7-hydroxy-4-oxaspiro[2.5]octan-5-yl)pyridin-3-yl)thiazole-4-carboxamide]
PIM1
  IC50: 7 nM
GSK3β
  IC50: 65 nM
[1]
  EC50: > 10000 nM
PIM2
  IC50: 599 nM
PIM3
  IC50: 20 nM

## O=C(Nc1cnccc1[C@@H]1C[C@H](O)[C@]2(O)CCCC[C@@H]2O1)c1ccnn(-c2ccccc2F)c1=O [Example 191, N-(4-((2S,4S,4aR,8aS)-4,4a-dihydroxyoctahydro-2H-chromen-2-yl)pyridin-3-yl)-2-(2-fluorophenyl)-3-oxo-2,3-dihydropyridazine-4-carboxamide]
PIM1
  IC50: 1780 nM
GSK3β
  IC50: 1080 nM
[1]
  EC50: > 10000 nM
PIM2
  IC50: > 25000 nM
PIM3
  IC50: 2370 nM

## CC[C@@H]1O[C@H](c2ccncc2NC(=O)c2nc(-c3c(F)cccc3F)ncc2N)C[C@H](O)[C@@]1(C)O [Example 167, 5-amino-2-(2,6-difluorophenyl)-N-(4-((2S,4S,5R,6S)-6-ethyl-4,5-dihydroxy-5-methyltetrahydro-2H-pyran-2-yl)pyridin-3-yl)pyrimidine-4-carboxamide]
PIM1
  IC50: 65.5 nM
GSK3β
  IC50: 3410 nM
[1]
  EC50: > 10000 nM
PIM2
  IC50: 92 nM
PIM3
  IC50: 86.7 nM

## CC1(C)O[C@H](c2ccncc2NC(=O)c2ccc(F)c(-c3c(F)cccc3F)n2)C[C@@H](O)[C@H]1O [Example 91, 6-(2,6-difluorophenyl)-N-(4-((2S,4R,5R)-4,5-dihydroxy-6,6-dimethyltetrahydro-2H-pyran-2-yl)pyridin-3-yl)-5-fluoropicolinamide]
PIM1
  IC50: 3 nM
GSK3β
  IC50: 171 nM
[1]
  EC50: 7100 nM
PIM2
  IC50: 47 nM
PIM3
  IC50: 13 nM

## C=C[C@H]1OC(c2ccncc2NC(=O)c2nc(-c3ccccc3)ncc2N)=C[C@@H](O)[C@@H]1O [Example 22, 5-amino-N-(4-((2R,3S,4R)-3,4-dihydroxy-2-vinyl-3,4-dihydro-2H-pyran-6-yl)pyridin-3-yl)-2-phenylpyrimidine-4-carboxamide]
PIM1
  IC50: 20 nM
GSK3β
  IC50: 870 nM
[1]
  EC50: > 10000 nM
PIM2
  IC50: 160 nM
PIM3
  IC50: 9 nM

## CC[C@]1(O)[C@H](O)C[C@H](c2ccncc2NC(=O)c2nc(-c3nccs3)ccc2N)O[C@@H]1C [Example 3, 3-amino-N-(4-((2R,4R,5S,6R)-5-ethyl-4,5-dihydroxy-6-methyltetrahydro-2H-pyran-2-yl)pyridin-3-yl)-6-(thiazol-2-yl)picolinamide]
PIM1
  IC50: 8.7 nM
GSK3β
  IC50: 1170 nM
[1]
  EC50: > 10000 nM
PIM2
  IC50: 66 nM
PIM3
  IC50: 12 nM

## N#CC[C@H]1O[C@@H](c2ccncc2NC(=O)c2nc(-c3c(F)cccc3F)c(F)cc2N)C[C@@H](O)[C@@H]1O [Example 139, 3-amino-N-(4-((2R,4R,5S,6R)-6-(cyanomethyl)-4,5-dihydroxytetrahydro-2H-pyran-2-yl)pyridin-3-yl)-6-(2,6-difluorophenyl)-5-fluoropicolinamide]
PIM1
  IC50: 1 nM
GSK3β
  IC50: 450 nM
[1]
  EC50: > 10000 nM
PIM2
  IC50: 5 nM
PIM3
  IC50: 2 nM

## O=C(Nc1cnccc1[C@H]1C[C@@H](O)[C@@]2(O)CCC[C@H]2O1)c1c[nH]cc(-c2ccccc2)c1=O [Example 181, N-(4-((2R,4R,4aS,7aR)-4,4a-dihydroxyoctahydrocyclopenta[b]pyran-2-yl)pyridin-3-yl)-4-oxo-5-phenyl-1,4-dihydropyridine-3-carboxamide]
PIM1
  IC50: 825 nM
GSK3β
  IC50: 4210 nM
[1]
  EC50: > 10000 nM
PIM2
  IC50: 9100 nM
PIM3
  IC50: 492 nM

## Nc1cc(F)c(-c2ccccc2F)nc1C(=O)Nc1cnccc1[C@H]1C[C@@H](O)[C@H](O)[C@@H](CCl)O1 [Example 38, 3-amino-N-(4-((2R,4R,5S,6S)-6-(chloromethyl)-4,5-dihydroxytetrahydro-2H-pyran-2-yl)pyridin-3-yl)-5-fluoro-6-(2-fluorophenyl)picolinamide]
PIM1
  IC50: 1 nM
GSK3β
  IC50: 15 nM
[1]
  EC50: 6900 nM
PIM2
  IC50: 3 nM
PIM3
  IC50: 2 nM
